# Measurements as given in patent publication US20110178105A1, “CLINICAL BENEFITS OF EICOSAPENTAENOIC ACID IN HUMANS” (E.I. DU PONT DE NEMOURS AND COMPANY, priority 2010, published 2011).
# Read-outs that look alike come from different tables or passages of the source.
# Legend:
# [1] = Clinical study in healthy subjects: body weight, BMI, blood pressure, pulse; format: in vivo, human; conditions: 6 weeks
# Description: The goal of this study was to test the safety and efficacy of an EPA-enriched oil (as described in Examples 1-3; E.I. duPont de Nemours & Co., Inc. Applied Biosciences, Wilmington, Del.), to corroborate the safety of a novel oil rich in EPA in humans prior to this product being placed on the market as a dietary supplement. This oil was tested at doses of 600 mg and 1800 mg of EPA/day as compared […] parallel arm design in approximately 120 healthy adults studied in both the fasting and post-prandial state. Safety was monitored by assessing for adverse reactions, measuring vital signs and a variety of laboratory tests including a complete metabolic profile, thyroid function tests, complete blood count, and prothrombin time.
# The objective was to carry out a double blinded, randomized, placebo-controlled trial in 120 healthy subjects between 20-70 years of age over a 6 week period comparing the effects of an EPA-enriched oil provided at daily […] Specific parameters investigated included changes in body weight, heart rate, blood pressure, complete blood count, comprehensive metabolic profile, lipid and lipoprotein measures in the fasted and fed state, fatty acid profiles, and inflammation markers.
# At all visits the following information was recorded: weight in pounds and kilograms, height in centimeters [“cm”] and inches, waist circumference in cm and inches, resting heart rate, systolic blood pressure, diastolic blood pressure, and a brief dietary assessment to assure continued lack of high fish intake and/or flax seed or fish oil dietary supplements. Blood pressure and pulse measurements were done 3 times on each visit after the subjects had been sitting quietly for 5 minutes.
# At the time of the enrollment visit all subjects were randomly allocated into a protocol where they were required to take two capsules three times daily which contained a either: 1) olive oil placebo; 2) 600 mg/day of EPA/day; 3) 1800 mg of EPA/day; and, […]). The EPA oils are notable for their low levels of saturated fatty acids, particularly with regard to the DHA oil. Specifically, the composition of the DHA oil was as follows (g fatty acid per 100 g of oil): 14.1 g myristic acid (14:0), 10.8 g palmitic acid (16:0), 2 g palmitoleic acid (16.1), 7.4 g margaric acid (17:0), 8.4 g oleic acid (18:1), 0.1 g EPA (20:5n3), 0.9 g DPA (22:5n6) and 37.9 g DHA (22:6n3).
# At visit 2, subjects were again asked to fast for 12 hours, and information about subject characteristics including all vital signs, recent illness or hospitalization, medication and supplement use, and diet information was again obtained. […] At one week and three weeks after beginning the supplements, all study subjects were contacted by telephone and asked about any adverse effects and about their compliance, and the information on their calendars with regard to capsule use and fish intake. They were also asked about whether they had experienced any fishy aftertaste or odor, and if so, how frequent were these episodes, and how unpleasant were they? The entire process as listed above was repeated after study subjects were on the study capsules for 6 weeks at the time of the final visit. Compliance and adverse events were assessed by telephone at weeks 1 and 3 by telephone and at week 6 by questionnaire and capsule count. Over 42 days, subjects were expected to have consumed a total of 252 capsules. Compliance was calculated as a percentage of consumed capsule count/expected capsule count based on the number of days the subject was in the study. All subjects were asked to stay on their capsules until they come in for their final visit. Compliance in all participants who completed the study was based on capsule count was in excess of 85%, mean 96%.
# Statistical analyses compared mean absolute and percentage changes from baseline and 6 weeks in the active groups versus the placebo group. Analysis of variance, as well as paired t-test analysis were performed with SYSTAT software. […]
# [2] = parameters: reduction of events / relative risk reduction in stroke / reduction of risk of subsequent CHD events / relative risk reduction of major cardiovascular events: concentration or dose not given beside the values; conditions: cited from earlier work
# [3] = rat; DHA TG supplementation; cited from earlier work
# [4] = EPA 1800 mg/day plus statin group (9,326), 4.6 years of follow-up
compound,measurement,setting,value
"CCC=CCC=CCC=CCC=CC/C=C\CCCC(=O)O [EPA, cis-5,8, 11, 14, 17-eicosapentaenoic acid]","BMI, 6-Week Change (%)",[1]; EPA 600 mg (n = 27),+0.2 ± 2.3%
same,"BMI, Final",[1]; EPA 600 mg (n = 27),27.4 ± 3.1 kg/m^2
same,"Diastolic BP, Final",[1]; EPA 600 mg (n = 27),80.0 ± 7.9 mm
same,"Pulse, 6-Week Change (%)",[1]; EPA 600 mg (n = 27),+2.1 ± 13.6%
same,"Pulse, Final",[1]; EPA 600 mg (n = 27),74.7 ± 12.0 beats/min
same,"Systolic BP, 6-Week Change (%)",[1]; EPA 600 mg (n = 27),+3.0 ± 10.4%
same,"Systolic BP, Final",[1]; EPA 600 mg (n = 27),121.1 ± 12.2 mm Hg
same,"Weight, 6-Week Change (%)",[1]; EPA 600 mg (n = 27),+0.2 ± 2.1%
same,"Weight, Final",[1]; EPA 600 mg (n = 27),80.4 ± 10.9 kg
same,"BMI, 6-Week Change (%)",[1]; EPA 1800 mg (n = 29),+1.1 ± 5.1%
same,"BMI, Final",[1]; EPA 1800 mg (n = 29),27.9 ± 5. kg/m2
same,"Diastolic BP, 6-Week Change (%)",[1]; EPA 1800 mg (n = 29),+1.4 ± 9.1%
same,"Diastolic BP, Final",[1]; EPA 1800 mg (n = 29),77.4 ± 9.0 mm
same,"Pulse, 6-Week Change (%)",[1]; EPA 1800 mg (n = 29),+2.7 ± 8.6%
same,"Pulse, Final",[1]; EPA 1800 mg (n = 29),70.9 ± 8.5 beats/min
same,"Systolic BP, 6-Week Change (%)",[1]; EPA 1800 mg (n = 29),+1.0 ± 7.4%
same,"Systolic BP, Final",[1]; EPA 1800 mg (n = 29),119.9 ± 13.4 mm Hg
same,"Weight, 6-Week Change (%)",[1]; EPA 1800 mg (n = 29),+1.3 ± 4.6%
same,"Weight, Final",[1]; EPA 1800 mg (n = 29),81.6 ± 19.2 kg
same,triglyceride lowering,[2]; 1800 mg/day of EPA,no significant effect
same,reduction of risk of subsequent CHD events,"[2]; 1,050 subjects with prior myocardial infarction, EPA plus statin, p=0.033",27%
same,decrease in cardiovascular events,[2]; >98% purified EPA-ethyl esters plus statin versus statin alone,19%
same,major cardiovascular event rate,[2]; [4],2.8%
same,major cardiovascular events observed,[2]; [4],262 events
same,sudden death rates between the groups,[2]; EPA plus statin versus statin-only,No significant differences
same,relative risk reduction of major cardiovascular events,"[2]; EPA plus statin versus statin-only, p=0.011",19%
same,effects on lipid levels,[2]; EPA plus statin,not associated with any significant effects
same,reduction in stroke,"[2]; entire cohort, EPA plus statin",not associated with a significant reduction
same,stroke rate,"[2]; entire cohort, EPA plus statin",1.3%
same,risk reduction,"[2]; impaired glucose tolerance (fasting glucose >110 mg/dl), EPA plus statin, p=0.048",22%
same,risk reduction,"[2]; normal glucose group, EPA plus statin, not significant",18%
same,reduction of events,"[2]; patients with a history of prior CHD, EPA plus statin versus statin-only, p=0.048",19%
same,event rate,"[2]; patients with a history of prior CHD, EPA plus statin",8.7%
same,number needed to treat,[2]; patients with a history of prior CHD,49
same,rate of subsequent CHD events,"[2]; subjects with prior myocardial infarction, EPA plus statin",15.0%
same,number needed to treat to prevent one event,[2]; subjects with prior myocardial infarction,19
same,stroke rate,"[2]; subjects with prior stroke, EPA plus statin",6.8%
same,relative risk reduction in stroke,"[2]; subjects with prior stroke, EPA plus statin, p<0.05",20%
same,event rate,"[2]; subjects without CHD, EPA plus statin",1.4%
same,risk reduction,"[2]; subjects without CHD, p 0.132 (not significant)",18%
same,reduction of CHD events,"[2]; triglyceride >150 mg/dl and HDL cholesterol <40 mg/dl, EPA plus statin, p=0.043",53%
"CCC=CCC=CCC=CCC=CCC=CC/C=C\CCC(=O)O [DHA, cis-4,7, 10, 13, 16, 19-docosahexaenoic acid, reference compound]","plasma and erythrocyte DHA content, DHA TG versus DHA EE",[3],higher
